This note sets out measurements from article PMC8474119, “Discovery and SAR Evolution of Pyrazole Azabicyclo[3.2.1]octane Sulfonamides as a Novel Class of Non-Covalent N-Acylethanolamine-Hydrolyzing Acid Amidase (NAAA) Inhibitors for Oral Administration” (Journal of Medicinal Chemistry, 2021).

A short description of data set [1]: Liver microsomal stability assay (NADPH), mouse. It is filed as in vitro ADME. As to conditions: for half-life at 4.6 μM: male, CD1, pH 7.5, mouse liver microsomes, read-out: LM_NADPH t1/2; for % compound remaining at last time-point, LM_NADPH: mouse liver microsomes, 4.6 μM, 60 min. The procedure: (§1) Pooled CD1 mouse (M1000, male), IGS Sprague-Dawley rat (R1000, male), and human (H1000, male) liver microsomes were purchased from SEKISUI XenoTech. 10 mM DMSO stock solution of the test compound (39 or 50) was preincubated at 37 °C for 15 min with mouse, rat, or human liver microsomes in 0.1 M Tris-HCl buffer (pH 7.5) with 10% DMSO. The final concentration was 4.6 μM. After preincubation, the cofactor (NADPH) was added to the incubation mixture, and the incubation was continued at 37 °C for 1 h. At each time point (0, 5, 15, 30, and 60 min), 30 μL of incubation mixture was diluted with 200 μL cold CH3CN spiked with 200 nM of an appropriate internal standard, followed by centrifugation at 3.270g for 15 min. The supernatant was further diluted with H2O (1:1) for analysis. A reference incubation mixture of each specie (microsomes without cofactors) was prepared for each test compound and analyzed at t = 0 and 60 min in order to verify the compound stability in the matrix. The two time points were diluted as for the time points of the incubation mixture above. The supernatants were analyzed by LC–MS/MS on a Waters ACQUITY UPLC-MS TQD system consisting of a triple quadrupole detector (TQD) mass spectrometer equipped with an electrospray ionization interface and a photodiode array eλ detector (PDA) from Waters Inc. (Milford, MA, USA). Electrospray ionization was applied in positive mode. Compound-dependent parameters as MRM transitions and collision energy were developed for each compound. The analyses were run on an ACQUITY UPLC BEH C18 (50 × 2.1 mm ID, particle size 1.7 μm) with a VanGuard BEH C18 precolumn (5 × 2.1 mm ID, particle size 1.7 μm) at 40 °C, using H2O + 0.1% HCOOH (A) and CH3CN + 0.1% HCOOH (B) as the mobile phase. The percentage of test compound remaining at each time point relative to t = 0 was calculated by the response factor on the basis of the internal standard peak area. The percentage of test compound versus time was plotted and fitted by GraphPad Prism (GraphPad Software, Version 5 for Windows, CA, USA, www.graphpad.com) to estimate the compound’s half-life (t1/2), which was reported as mean value along with the standard deviation (n = 3).
(Microsomes from liver hold many membrane-bound enzymes, among them those of drug oxidation.)

A short description of data set [2]: Liver microsomal stability assay (NADPH), human. It is filed as in vitro ADME. As to conditions: for % compound remaining at last time-point, LM_NADPH: human liver microsomes, 4.6 μM, 60 min; for half-life at 4.6 μM: male, pH 7.5, human liver microsomes, read-out: LM_NADPH t1/2. As for the experimental part:
as §1

Data set [3] can be described thus: Liver microsomal stability assay (NADPH), rat. Type of data set: in vitro ADME. To be noted: male, Sprague-Dawley, pH 7.5, rat liver microsomes, read-out: LM_NADPH t1/2. As for the experimental part: Pooled CD1 mouse (M1000, male), IGS Sprague-Dawley rat (R1000, male), and human (H1000, male) liver microsomes were purchased from SEKISUI XenoTech. 10 mM DMSO stock solution of the test compound (39 or 50) was preincubated at 37 °C for 15 min with mouse, rat, or human liver microsomes in 0.1 M Tris-HCl buffer (pH 7.5) with 10% DMSO. The final concentration was 4.6 μM. After preincubation, the cofactor (NADPH) was added to the incubation mixture, and the incubation was continued at 37 °C for 1 h. At each time point (0, 5, 15, 30, and 60 min), 30 μL of incubation mixture was diluted with 200 μL cold CH3CN spiked with 200 nM of an appropriate internal standard, followed by centrifugation at 3.270g for 15 min. […] A reference incubation mixture of each specie (microsomes without cofactors) was prepared for each test compound and analyzed at t = 0 and 60 min in order to verify the compound stability in the matrix. […] The supernatants were analyzed by LC–MS/MS on a Waters ACQUITY UPLC-MS TQD system consisting of a triple quadrupole detector (TQD) mass spectrometer equipped with an electrospray ionization interface and a photodiode array eλ detector (PDA) from Waters Inc. (Milford, MA, USA). […] The percentage of test compound remaining at each time point relative to t = 0 was calculated by the response factor on the basis of the internal standard peak area. […]

Data set [4] has as its target T1, human FAAH (Homo sapiens, UniProt O00519).
T1 construct: made in house; host or cells: HEK-293 cells stably overexpressing human FAAH-1; membrane-enriched lysate
T1 sequence (O00519 1-579): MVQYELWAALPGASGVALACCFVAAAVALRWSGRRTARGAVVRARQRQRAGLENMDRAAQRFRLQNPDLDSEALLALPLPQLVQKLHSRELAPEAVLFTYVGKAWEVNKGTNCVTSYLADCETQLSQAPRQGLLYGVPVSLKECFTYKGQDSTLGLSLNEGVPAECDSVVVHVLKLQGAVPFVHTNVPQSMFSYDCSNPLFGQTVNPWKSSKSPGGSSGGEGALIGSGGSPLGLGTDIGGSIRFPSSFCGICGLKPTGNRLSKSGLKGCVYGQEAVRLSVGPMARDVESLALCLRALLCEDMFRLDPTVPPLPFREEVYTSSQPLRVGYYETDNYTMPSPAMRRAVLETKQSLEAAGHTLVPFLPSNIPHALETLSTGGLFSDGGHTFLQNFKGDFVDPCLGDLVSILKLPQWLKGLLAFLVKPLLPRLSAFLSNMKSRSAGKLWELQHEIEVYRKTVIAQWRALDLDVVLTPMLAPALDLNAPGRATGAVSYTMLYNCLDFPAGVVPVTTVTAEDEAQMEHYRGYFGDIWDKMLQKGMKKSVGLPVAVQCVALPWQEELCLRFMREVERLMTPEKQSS
The data set is described as follows: Fluorogenic human-FAAH-1 assay. Type of data set: biochemical. As for the experimental part: Human recombinant proteins were obtained from HEK-293 stable overexpressing human NAAA, AC, and FAAH-1 cell lines, respectively. Cells were grown in Dulbecco’s modified Eagle medium (DMEM) containing 10% FBS, 1% glutamine, 1 mM sodium pyruvate, and 500 μg/mL geneticin (G418). To obtain a high-density cell proliferation, h-NAAA-HEK-293 cells were grown in BelloCell-500 bottle, a compact bioreactor. On the contrary, h-AC and h-FAAH-1-HEK-293 cells were grown in 150 mm dishes and scraped off with cold PBS 1× pH 7.4 at 80% confluence. Cell pellets were collected and stored at −80 °C until protein preparation.
Cell pellets, obtained by centrifugation at 300g for 7 min at 4 °C, were resuspended in 20 mM Tris-HCl pH 7.4, 0.32 M sucrose, disrupted by sonication (10 pulses, 5 times), and centrifuged (1000g, 10 min, 4 °C). […] Membrane pellets were resuspended in PBS to obtain h-FAAH-1 preparation; the protein concentration was measured by the Bradford Protein Assay (BioRad) and samples were aliquoted and stored at −80 °C until use.
The fluorescence assay to measure FAAH activity was performed in 96-well black plates (Black OptiPlate-96 F; PerkinElmer, Massachusetts, USA): 2.5 μg of human FAAH-1 membrane preparation was preincubated for 50 min at 37 °C, in 190 μL of assay buffer (50 mM Tris-HCl pH 7.4, 0.05% Fatty acid-free BSA) with 5 μL of inhibitor or 5 μL DMSO to measure FAAH total activity. […]

A word on the inhibition: it is how much of the control response was suppressed. Read a high inhibition as strong suppression.

`CCCCc1ccc(O[C@H]2C[C@H]3CC[C@@H](C2)N3S(=O)(=O)c2c(C)n[nH]c2C)cc1` [Compound 39, (1R,3r,5S)-3-(4-Butylphenoxy)-8-((3,5-dimethyl-1H-pyrazol-4-yl)sulfonyl)-8-azabicyclo[3.2.1]octane]: in data set [1], the half-life at 4.6 μM was more than 60 min and the “% compound remaining at last time-point, LM_NADPH” value (from here on “% compound remaining”) came to 93%. In data set [2], the “% compound remaining” value turned out to be 83% and the half-life at 4.6 μM was more than 60 min. The half-life at 1 h, 4.6 µM in data set [3] was 13 min.

Consider `CCOCc1cnc(O[C@H]2C[C@H]3CC[C@@H](C2)N3S(=O)(=O)c2c(C)n[nH]c2C)cn1` [Compound 50, (1R,3r,5S)-8-((3,5-Dimethyl-1H-pyrazol-4-yl)sulfonyl)-3-((5-(ethoxymethyl)pyrazin-2-yl)oxy)-8-azabicyclo[3.2.1]octane], for which the inhibition at 30 µM in data set [4] is 25%. Further, in data set [1], the half-life at 4.6 μM was more than 60 min and the “% compound remaining” value came to 55%. Besides, in data set [2], the “% compound remaining” value is 88% and the half-life at 4.6 μM was more than 60 min. The half-life at 1 h, 4.6 µM in data set [3] turned out to be 48 min.
